# Experimental data as given in patent publication US20260256860A1, “TRADITIONAL CHINESE MEDICINE COMPOSITION FOR TREATING AMYOTROPHIC LATERAL SCLEROSIS AND USE THEREOF” (HEBEI YILING MEDICAL RESEARCH INSTITUTE CO., LTD, priority 2023, published 2026).
# Values joined by “and” are separate entries in the source; they are usually repeats but may differ in a detail not shown here. Equal values may be shown once.
# Assays:
# Format in all cases: in vivo
# [1] = tested on: SOD1-G93A transgenic mice; test: Hanging test in SOD1-G93A transgenic mice; conditions: Riluzole 0.02 g/kg gavage, 90 second cut-off
# Procedure: (§1) After ALS model mice were determined to have significant changes compared to negative control mice in behavioral test by combining literature as well as prior experience, they were randomly grouped according to their body weight. The drug administration was started and mice were observed.
# (§2) The corresponding drug solution was administered via gavage using a syringe at a volume of 10 ml/kg. The model group and negative control group were administered with an equivalent volume of sterile injectable water. The administration dose for each animal was adjusted weekly according to the animal's latest weighed weight.
# • 2.6.1 The tail suspension test was carried out to observe straightening reflex of limbs. […] The scoring criteria are as follows: • 0 points—No flexion of the hindlimbs observed. • 1 point—Flexion observed in unilateral hindlimb, with no obvious flexion in the other. • 2 points—Flexion observed in bilateral hindlimbs. Mice with a score of 2 points were considered to be in the symptomatic phase. The tail suspension test was stopped when all ALS mice reached a score of 2 points. • 2.6.2 Hanging Test: The mouse was placed on a 3-mesh screen. The screen was then rapidly inverted, causing the mouse to hang upside down, and the timer was started. A 90 second cut-off time was set. The mice with a hanging time of less than 90 seconds were noted, and the actual time they remained hanged was recorded. The hanging test was discontinued upon the occurrence of death in ALS mice. […] The severity of this abnormality correlates with the degree of muscle atrophy and loss of muscle strength. In this study, the onset of disease in transgenic mice was determined based on the results of the tail suspension test. Additionally, guided by literature review and previous experimental experience, each mouse was sequentially evaluated by both the tail suspension and hanging tests.
# [2] = tested on: SOD1-G93A transgenic mice; test: Time to onset of paralysis in SOD1-G93A transgenic mice; conditions: Riluzole 0.02 g/kg gavage
# Procedure: Neurological function was evaluated during the dosing phase using the Snow scoring method twice weekly. […]
# The time from administration to the first occurrence of a neurological function score ≥3.5 was defined as the time to onset of paralysis. The mean time to onset of paralysis of animals was calculated. […] The paralysis delay rate for each drug group was also calculated according to the following formula:
# The time from administration to the first occurrence of a neurological function score ≥3.5 was defined as the time to onset of paralysis. The mean time to onset of paralysis of animals was calculated. […]
# [3] = tested on: SOD1-G93A transgenic mice; test: Immunoblotting of MBP and SV2A in spinal cord, SOD1-G93A transgenic mice; conditions: Riluzole 0.02 g/kg gavage, 30 days, negative control 1.00
# Procedure: as §1, §2
# (§3) After 30 days of administration, electrophysiological measurements were performed, and tissue material was collected for subsequent detections. • 2.7.1 Electrophysiological parameters
# Based on the amount of spinal cord tissue harvested from mice, myelin- and synapse-related molecular biological indicators were detected. The myelin- and synapse-related indicators included myelin basic protein (MBP) and synaptic vesicle protein 2A(SV2A).
# Based on the amount of spinal cord tissue harvested from mice, myelin- and synapse-related molecular biological indicators, including myelin basic protein (MBP) and synaptic vesicle protein 2A (SV2A), were detected.
# [4] = tested on: SOD1-G93A transgenic mice; test: HE staining of sciatic nerve, lesion grading, SOD1-G93A transgenic mice; design: key to Axonal degeneration with myelin degeneration, lesion grade of individual animal: mild (+); moderate (++); moderately severe (+++); severe (++++); conditions: for Lesion score (divided by gender): median of lesion grade points; for Axonal degeneration with myelin degeneration, lesion grade of individual animal: sciatic nerve HE, individual animals, listed as Positive drug control group
# Procedure: as §1, §2, §3
# HE staining was carried out to observe gastrocnemius muscle and sciatic nerve. Toluidine blue staining was carried out to observe the morphology and number of motor neurons in the spinal cord. • 2.7.4 Immunofluorescence
# [5] = tested on: SOD1-G93A transgenic mice; test: Immunofluorescence of gastrocnemius muscle and spinal cord, SOD1-G93A transgenic mice; conditions: vs model control; Riluzole 0.02 g/kg; TCM-073 each administration group (1.5, 3.0, 6.0 g raw drug/kg); 30 days
# Procedure: as §1, §2, §3
# Based on the amount of spinal cord and muscle tissues harvested from mice, neuromuscular junction, stem cell regeneration, microglial senescence and degree of myelin and neuronal damage and repair were detected. For example, the muscular presynaptic marker (synaptotagmin-2) and the acetylcholine receptor (AChR) marker (α-BTX) were co-stained, the satellite cell marker (Pax7) and laminin 2a were co-stained, the myelin marker (myelin basic protein, MBP) was stained, and the neuronal marker (beta-III Tubulin, also known as Tuj-1) was stained. • 2.7.5 Molecular biological indicators
# The muscular presynaptic marker (synaptotagmin-2) and acetylcholine receptor (AChR) marker (α-BTX) of the gastrocnemius muscle were detected by the immunofluorescence.
# The satellite cell marker (Pax7) and laminin 2α of the gastrocnemius muscle were detected by the immunofluorescence.
# The myelin marker (myelin basic protein, MBP) of the spinal cord was detected by the immunofluorescence.
# The neuronal marker (beta-III Tubulin, also known as Tuj-1) of the spinal cord was detected by the immunofluorescence.
# [6] = tested on: SOD1-G93A transgenic mice; test: Neurological function score (Snow scoring) in SOD1-G93A transgenic mice; conditions: Riluzole 0.02 g/kg gavage
# Procedure: as §1, §2
# Neurological function was evaluated during the dosing phase using the Snow scoring method twice weekly. The specific criteria for neurological system scoring are as follows. • 1.0 point—Abnormal extension or tremors of hind limbs of the mouse when suspended by tail. • 1.5 points—Weakness of unilateral hind limb • 2.0 points—Weakness of bilateral hind limbs along with abnormal gait. • 2.5 points—Obvious weakness of unilateral hind limb. • 3.0 points—Obvious weakness of bilateral hind limbs. • 3.5 points—Paralysis in unilateral hind limb. • 4.0 points—Paralysis in bilateral hind limbs. • 5.0 points—Inability of mouse to right itself from a supine position within 20 seconds.
# [7] = tested on: SOD1-G93A transgenic mice; test: Compound muscle action potential electrophysiology in SOD1-G93A transgenic mice; conditions: Riluzole 0.02 g/kg gavage, 30 days
# Procedure: • 1.3.1 Animal Strain: B6SJL-Tg (SOD1-G93A) 1 Gur/J (Stock Number: 002726) provided by The Jackson Laboratory (United States). […] Both males and females were included. • 1.3.4 Animal Age: 7-8 weeks old. • 1.3.5 Animal Weight: At the start of dosing the body weight of male mice was 23.9-31.3 g, and the body weight of female mice was 17.7-25.4 g. • 1.3.6 Animal Source: Purchased from The Jackson Laboratory (United States). Breeding was conducted by Jiangsu GemPhanmatech Co., Ltd. • 1.3.7 Animal Certification of Quality, issuing authority, and receipt date: Certification number 320727210100609023. License number SCXK (Jiangsu) 2018-0008. Issuing authority: Jiangsu GemPharmatech Co., Ltd. Receipt date: Oct. 13, 2021. • 1.3.8 Feeding Conditions: Mice were reared in cages at the Innovative Drug Evaluation Center of Hebei Research Institute of Integrated Traditional Chinese and Western Medicine. License Number: SYXK (Hebei) 2020-006. Lighting: 12 h/day. Temperature: 20-26° C. Relative Humidity: 40%-70%. • 1.3.9 Quarantine Process: Animals were subjected to adaptive feeding for at least 5 days. […] Experimental Animal Production License Number: SCXK (Beijing) 2019-0003. Product Batch Number: 21073213. Expiration date: 2022 Jan. 3. • 1.3.11 Water: Clean water prepared by the ROB-B drinking water system for laboratory animal was provided, and filled in water bottles for free drinking. The drinking water was detected annually for all indicators, including mainly microbiological indicators, toxicological indicators, sensory characteristics, and general chemical parameters, and the detection was commissioned to a qualified institution. Microbial limit detection was performed every 2 months, which was commissioned to the Quality Control Department of Shijiazhuang Yiling Pharmaceutical Co., Ltd. The detection reports were stored by the animal department and archived annually. • 1.3.12 Bedding: Corn cob bedding (common grade) provided by Beijing Keao Xieli Feed Co., Ltd., was sterilized by high temperature and high pressure before use. Experimental Animal Production License Number: SCXK (Beijing) 2020-0010. Batch Number: 21099811. • 1.3.13 Marking: Mice were marked with ear tags, provided by Globalebio (Beijing) Technology Co., Ltd.
# as §1
# The drug was orally administered via gavage, consistent with the clinically recommended oral administration.
# The administration dose for mice was 10 times the clinical dose, approximately 0.02 g/kg. The used administration volume was 10 ml/kg and administration concentration was 0.02 g/10 ml. […] During the preparation, one tablet was taken, ground with sterile injectable water and adjusted to a final volume of 25 ml. The obtained liquor can be used based on the number of animals.
# The proposed clinical dose of TCM-073 was 18 g of raw drug/day. This test set three doses: low dose (1.5 g raw drug/kg), medium dose (3.0 g raw drug/kg), and high dose (6.0 g raw drug/kg), corresponding to 5, 10, and 20 times the clinical dose, respectively (See Table 14 for details). An appropriate amount of the drug was weighed and ground using sterile injectable water as the solvent to prepare high, medium, and low doses.
# as §2
# Based on preliminary experimental experience, literature review, and the disease characteristics of this mouse strain, the administration was started when the mice were 70 days old. […]
# [8] = tested on: SOD1-G93A transgenic mice; test: Serum malondialdehyde (MDA) in SOD1-G93A transgenic mice; conditions: Mus musculus, po, 720 h; read-out: % Inhibition rate (on oxidative damage, from MDA content)
# Procedure: Blood of mice was collected by removal of eyeball. The blood samples were allowed to stand until supernatant separated out, and then centrifuged at 3,000 rpm for 10 minutes at 4° C. to isolate serum. The serum was aliquoted into EP tubes and stored in an ultra-low temperature refrigerator (−80° C.). MDA content was measured. The inhibition rate on oxidative damage by each drug group was calculated according to MDA content, following the formula of.
# Blood of mice was collected by removal of eyeball. Blood samples were allowed to stand until supernatant separated out, and then centrifuged at 3,000 rpm for 10 minutes at 4° C. to isolate serum. The MDA content was measured using a kit, and the inhibition rate on oxidative damage by each drug group was calculated according to MDA content.
# [9] = Riluzole 0.02 g/kg gavage, female
# [10] = Riluzole 0.02 g/kg gavage, male
structure (smiles),measurement,setting,value
Nc1nc2ccc(OC(F)(F)F)cc2s1 [Riluzole],Hanging time,[1]; 31 d of administration,63.3 ± 29.2 s
same,Hanging time,[1]; 34 d of administration,57.6 ± 2.6 s
same,Hanging time,[1]; 39 d of administration,46.5 ± 29.8 s
same,Hanging time,[1]; 42 d of administration,40.8 ± 30.7 s
same,Hanging time,[1]; 46 d of administration,33.8 ± 27.2 s
same,Time to onset of paralysis,[2]; female,139.6 ± 5.7 days
same,Time to onset of paralysis,[2]; male,129.2 ± 18.9 days
same,MBP content in spinal cord,[3],0.99 ± 0.62
same,SV2A content in spinal cord,[3],0.41 ± 0.15
same,"Sciatic nerve axonal degeneration with myelin degeneration, number of samples per lesion grade","[4]; Riluzole 0.02 g/kg gavage, 6 samples","myelin degeneration (1 sample: +++, 4 samples: ++, 1 sample: +)."
same,Lesion score (divided by gender),[4]; [9],2
same,Lesion score (divided by gender),[4]; [10],2
same,Group Score (lesion),"[4]; Riluzole 0.02 g/kg gavage, median of lesion grade points of the group",2
same,"Axonal degeneration with myelin degeneration, lesion grade of individual animal",[4]; [9],+ and ++ (2×)
same,"Axonal degeneration with myelin degeneration, lesion grade of individual animal",[4]; [10],++ (2×) and +++
same,Sciatic nerve pathological changes (HE staining) compared to the model control group,"[4]; Riluzole 0.02 g/kg, TCM-073 high dose 6.0 g raw drug/kg",slightly milder
same,"Co-localization degree of synaptotagmin-2 and α-BTX (neuromuscular junction), gastrocnemius muscle",[5],increased the co-localization degree of neuromuscular junctions
same,"MBP (myelin marker) expression in spinal cord, immunofluorescence",[5],increased the expression levels of the myelin marker
same,Number of Pax7-positive satellite cells in the gastrocnemius muscle,[5],increased the number of positive satellite cells in the gastrocnemius muscle
same,"Tuj-1 (neuronal marker) expression in spinal cord, immunofluorescence",[5],increased the expression levels of the myelin marker and neuronal marker
same,Neurological function score,[6]; 31 d of administration,2.2 ± 0.4
same,Neurological function score,[6]; 34 d of administration,2.2 ± 0.4
same,Neurological function score,[6]; 39 d of administration,2.2 ± 0.5
same,Neurological function score,[6]; 42 d of administration,2.3 ± 0.5
same,Neurological function score,[6]; 46 d of administration,2.2 ± 0.4
same,Peak value of action potential,[7]; female,10.4 ± 4.0
same,Time course within region of interest of action potential,[7]; female,0.0018 ± 0.0002
same,Wave amplitude of action potential,[7]; female,14.8 ± 5.6
same,Peak value of action potential,[7]; male,8.8 ± 2.2
same,Time course within region of interest of action potential,[7]; male,0.0016 ± 0.0001
same,Wave amplitude of action potential,[7]; male,11.2 ± 3.9
same,Peak value of action potential,[7]; no division by gender,9.6 ± 3.3
same,Time course within region of interest of action potential,[7]; no division by gender,0.0017 ± 0.0002
same,Wave amplitude of action potential,[7]; no division by gender,13.0 ± 5.0
same,inhibition at 20 mg/kg,[8],20%
